From publication PMC7914897, “Cytotoxic Potential of a-Azepano- and 3-Amino-3,4-SeCo-Triterpenoids” (International Journal of Molecular Sciences, 2021)
Like-named read-outs stand apart in the source and are kept apart here.

Assays:
[1] = test system: NCI/ADR-RES (Ovarian cancer); experiment: NCI-60 screen (SRB, 48 h); conditions: Homo sapiens
UACC-257 (Melanoma) = experiment: NCI-60 screen (SRB, 48 h); conditions: Homo sapiens
CNS cancer subpanel = experiment: NCI-60 screen, subpanel; conditions: Homo sapiens
U251 (CNS cancer) = experiment: NCI-60 screen (SRB, 48 h)
MALME-3M (Melanoma) = experiment: NCI-60 screen (SRB, 48 h); conditions: Homo sapiens
HS 578T (Breast cancer) = experiment: NCI-60 screen (SRB, 48 h); conditions: Homo sapiens
SK-MEL-28 (Melanoma) = experiment: NCI-60 screen (SRB, 48 h); conditions: Homo sapiens
HOP-92 (NSC lung cancer) = experiment: NCI-60 screen (SRB, 48 h); conditions: Homo sapiens
OVCAR-8 (Ovarian cancer) = experiment: NCI-60 screen (SRB, 48 h); conditions: Homo sapiens
K-562 (Leukemia) = experiment: NCI-60 screen (SRB, 48 h); conditions: Homo sapiens
HCT-15 (Colon cancer) = experiment: NCI-60 screen (SRB, 48 h); conditions: Homo sapiens
[2] = test system: NCI-H23 (NSC lung cancer); experiment: NCI-60 screen (SRB, 48 h); conditions: Homo sapiens
OVCAR-4 (Ovarian cancer) = experiment: NCI-60 screen (SRB, 48 h); assay type: cell-based; conditions: Homo sapiens
RPMI-8226 (Leukemia) = experiment: NCI-60 screen (SRB, 48 h); conditions: Homo sapiens
[3] = test system: MDA-MB-31/ATCC (Breast cancer); experiment: NCI-60 screen (SRB, 48 h); conditions: Homo sapiens
Leukemia subpanel = experiment: cells; conditions: Homo sapiens
OVCAR-5 (Ovarian cancer) = experiment: NCI-60 screen (SRB, 48 h); conditions: Homo sapiens
HCC-2998 (Colon cancer) = experiment: NCI-60 screen (SRB, 48 h); conditions: Homo sapiens
SK-MEL-2 (Melanoma) = experiment: NCI-60 screen (SRB, 48 h); conditions: Homo sapiens
SN12C (Renal cancer) = experiment: NCI-60 screen (SRB, 48 h); conditions: Homo sapiens
M14 (Melanoma) = experiment: NCI-60 screen (SRB, 48 h); conditions: Homo sapiens
SF-539 (CNS cancer) = experiment: NCI-60 screen (SRB, 48 h); conditions: Homo sapiens
[4] = test system: NCI-H226 (NSC lung cancer); experiment: NCI-60 screen (SRB, 48 h); conditions: Homo sapiens
LOX IMVI (Melanoma) = experiment: NCI-60 screen (SRB, 48 h); assay type: cell-based; conditions: Homo sapiens
SK-OV-3 (Ovarian cancer) = experiment: NCI-60 screen (SRB, 48 h); conditions: Homo sapiens
MDA-MB-435 (Melanoma) = experiment: NCI-60 screen (SRB, 48 h); assay type: cell-based; conditions: Homo sapiens
[5] = test system: panel of approximately 60 cancer cell lines; experiment: NCI-60 screen (SRB, 48 h), full panel

## Cc1ccc(S(=O)(=O)OC[C@@]2(C)CC[C@]3(C)CC[C@]4(C)C(=C3C2)C=C[C@@H]2[C@@]3(C)CCCNC(C)(C)[C@@H]3CC[C@]24C)cc1 [Compound 16]
[1]
  GI50: 2.05 µM
[1]; 48 h, read-out: TGI
  IC (TGI): 4.59 µM
[1]; read-out: LC50
  CC50: > 100 µM
UACC-257 (Melanoma); UACC-257
  GI50: 1.85 µM
UACC-257 (Melanoma); UACC-257, 48 h, read-out: TGI
  IC (TGI): 3.68 µM
CNS cancer subpanel; 48 h, read-out: TGI MG_MID
  IC (TGI): 3.4 µM
CNS cancer subpanel; read-out: GI50 MG_MID
  GI50: 1.77 µM
CNS cancer subpanel; read-out: LC50 MG_MID
  CC50: 6.49 µM
U251 (CNS cancer); Homo sapiens, U-251
  GI50: 1.66 µM
U251 (CNS cancer); Homo sapiens, U-251, 48 h, read-out: TGI
  IC (TGI): 3.17 µM
U251 (CNS cancer); Homo sapiens, U-251, read-out: LC50
  CC50: 6.07 µM
U251 (CNS cancer); U251, 1 dose 10 µM
  Growth % of the Most Sensitive Cell Lines: −95.86%
MALME-3M (Melanoma)
  GI50: 1.68 µM
MALME-3M (Melanoma); 48 h, read-out: TGI
  IC (TGI): 3.26 µM
MALME-3M (Melanoma); read-out: LC50
  CC50: 6.34 µM
HS 578T (Breast cancer)
  GI50: 1.94 µM
HS 578T (Breast cancer); 48 h, read-out: TGI
  IC (TGI): 4.26 µM
HS 578T (Breast cancer); read-out: LC50
  CC50: 9.37 µM
SK-MEL-28 (Melanoma); SK-MEL-28
  GI50: 1.77 µM
SK-MEL-28 (Melanoma); SK-MEL-28, 48 h, read-out: TGI
  IC (TGI): 3.26 µM
SK-MEL-28 (Melanoma); SK-MEL-28, read-out: LC50
  CC50: 5.97 µM
HOP-92 (NSC lung cancer); HOP-92
  GI50: 1.45 µM
HOP-92 (NSC lung cancer); HOP-92, 48 h, read-out: TGI
  IC (TGI): 2.97 µM
HOP-92 (NSC lung cancer); HOP-92, read-out: LC50
  CC50: 6.11 µM
OVCAR-8 (Ovarian cancer); OVCAR-8
  GI50: 2.12 µM
OVCAR-8 (Ovarian cancer); OVCAR-8, 48 h, read-out: TGI
  IC (TGI): 4.57 µM
K-562 (Leukemia); K562
  GI50: 1.28 µM
K-562 (Leukemia); K562, read-out: LC50
  CC50: > 100 µM
HCT-15 (Colon cancer); HCT-15
  GI50: 1.61 µM
HCT-15 (Colon cancer); HCT-15, 48 h, read-out: TGI
  IC (TGI): 3.17 µM
[2]; NCI-H23
  GI50: 1.82 µM
[2]; NCI-H23, 48 h, read-out: TGI
  IC (TGI): 3.42 µM
[2]; NCI-H23, read-out: LC50
  CC50: 6.41 µM
OVCAR-4 (Ovarian cancer); OVCAR-4, 48 h
  IC (TGI): 3.16 µM
OVCAR-4 (Ovarian cancer); OVCAR-4, read-out: GI50
  GI50: 1.66 µM
OVCAR-4 (Ovarian cancer); OVCAR-4, read-out: LC50 (the source's name)
  CC50: 6.02 µM
RPMI-8226 (Leukemia); RPMI-8226
  GI50: 2.12 µM
RPMI-8226 (Leukemia); RPMI-8226, 48 h, read-out: TGI
  IC (TGI): 4.63 µM
RPMI-8226 (Leukemia); RPMI-8226, read-out: LC50
  CC50: > 100 µM
[3]
  GI50: 1.98 µM
[3]; 48 h, read-out: TGI
  IC (TGI): 3.91 µM
Leukemia subpanel; 48 h, read-out: TGI MG_MID
  IC (TGI): 4.72 µM
Leukemia subpanel; read-out: GI50 MG_MID
  GI50: 1.61 µM
Leukemia subpanel; read-out: LC50 MG_MID
  CC50: > 100 µM
OVCAR-5 (Ovarian cancer); OVCAR-5
  GI50: 1.77 µM
OVCAR-5 (Ovarian cancer); OVCAR-5, 48 h, read-out: TGI
  IC (TGI): 3.21 µM
OVCAR-5 (Ovarian cancer); OVCAR-5, read-out: LC50
  CC50: 5.81 µM
HCC-2998 (Colon cancer); HCC 2998
  GI50: 1.58 µM
HCC-2998 (Colon cancer); HCC 2998, 48 h, read-out: TGI
  IC (TGI): 3.18 µM
SK-MEL-2 (Melanoma); SK-MEL-2
  GI50: 1.88 µM
SK-MEL-2 (Melanoma); SK-MEL-2, 48 h, read-out: TGI
  IC (TGI): 3.52 µM
SK-MEL-2 (Melanoma); SK-MEL-2, read-out: LC50
  CC50: 6.58 µM
SN12C (Renal cancer)
  GI50: 1.79 µM
SN12C (Renal cancer); 48 h, read-out: TGI
  IC (TGI): 3.41 µM
M14 (Melanoma); M14
  GI50: 1.8 µM
M14 (Melanoma); M14, 48 h, read-out: TGI
  IC (TGI): 3.62 µM
SF-539 (CNS cancer); SF-539
  GI50: 1.71 µM
SF-539 (CNS cancer); SF-539, 48 h, read-out: TGI
  IC (TGI): 3.11 µM
SF-539 (CNS cancer); SF-539, read-out: LC50
  CC50: 5.66 µM
[4]; NCI-H226
  GI50: 1.66 µM
[4]; NCI-H226, 48 h, read-out: TGI
  IC (TGI): 3.47 µM
LOX IMVI (Melanoma); 48 h
  IC (TGI): 3.02 µM
LOX IMVI (Melanoma); 48 h, 1 dose 10 µM, read-out: Growth % of the Most Sensitive Cell Lines
  activity at 10 µM: -99.2%
LOX IMVI (Melanoma); read-out: GI50
  GI50: 1.63 µM
SK-OV-3 (Ovarian cancer); SK-OV-3
  GI50: 1.79 µM
SK-OV-3 (Ovarian cancer); SK-OV-3, 48 h, read-out: TGI
  IC (TGI): 3.25 µM
SK-OV-3 (Ovarian cancer); SK-OV-3, read-out: LC50
  CC50: 5.91 µM
MDA-MB-435 (Melanoma); MDA-MB-435
  GI50: 1.64 µM
MDA-MB-435 (Melanoma); MDA-MB-435, 48 h, read-out: TGI
  IC (TGI): 3.07 µM
MDA-MB-435 (Melanoma); MDA-MB-435, read-out: LC50 (the source's name)
  CC50: 5.75 µM
[5]; 1 dose 10 µM
  Positive Cytostatic Effect (cell lines with percent growth 0 to 50 / total): 12/60
  Positive Cytotoxic Effect (cell lines with percent growth < 0 / total): 31/60
  number of cancer cell lines the compound was active against: 40 cell lines
[5]; Homo sapiens, 48 h, read-out: Mean Growth, %
  activity at 10 µM: -0.81%
[5]; Homo sapiens, 48 h, read-out: Range of Growth, %
  activity at 10 µM: -99.2 to 104%
[5]; Homo sapiens, 48 h, read-out: TGI MG_MID60, average over all cell lines
  IC (TGI): 3.52 µM
[5]; Homo sapiens, read-out: GI50 MG_MID60
  GI50: 1.72 µM
[5]; Homo sapiens, read-out: GI50 against all human tumor cell lines
  GI50: < 3 µM
[5]; Homo sapiens, read-out: GI50 against the most sensitive cell lines
  GI50: 0.2 to 0.94 µM
